Experimental data published in patent US9458447B2, “MPHOSPH1 peptides and vaccines including the same” (OncoTherapy Science, Inc., priority 2011, dated 2016).
Where no end group is shown, it is not given here.

Assays:
Assay type in all cases: cell-based, human
[1] = system: T2 cells pulsed with the corresponding peptide; experiment: IFN-gamma ELISA of established CTL lines; conditions: T2 cells pulsed with corresponding peptide vs T2 cells without peptide pulse
Experimental: CTLs were expanded in culture using the method similar to the one described by Riddell et al. (Walter E A et al., N Engl J Med 1995 Oct. 19, 333(16): 1038-44; Riddell S R et al., Nat Med 1996 February, 2(2): 216-23). A total of 5×10^4 CTLs were suspended in 25 ml of AIM-V/5% AS medium with 2 kinds of human B-lymphoblastoid cell lines, inactivated by Mitomycin C, in the presence of 40 ng/ml of anti-CD3 monoclonal antibody (Pharmingen). One day after initiating the cultures, 120 IU/ml of IL-2 were added to the cultures. The cultures were fed with fresh AIM-V/5% AS medium containing 30 IU/ml of IL-2 on days 5, 8 and 11 (Tanaka H et al., Br J Cancer 2001 Jan. 5, 84(1): 94-9; Umano Y et al., Br J Cancer 2001 Apr. 20, 84(8): 1052-7; Uchida N et al., Clin Cancer Res 2004 Dec. 15, 10(24): 8577-86; Suda T et al., Cancer Sci 2006 May, 97(5): 411-9; Watanabe T et al., Cancer Sci 2005 August, 96(8): 498-506).
(§1) To examine specific CTL activity, interferon(IFN)-gamma enzyme-linked immunospot (ELISPOT) assay and IFN-gamma enzyme-linked immunosorbent assay (ELISA) were performed. Peptide-pulsed T2 (1×10^4/well) was prepared as stimulator cells. Cultured cells in 48-well plate, CTL lines and CTL clones were used as responder cells. IFN-gamma ELISPOT assay and IFN-gamma ELISA assay were performed under manufacture procedure.

peptide-pulsed T2 cells = experiment: IFN-gamma ELISPOT assay of CTLs induced with peptide-pulsed DCs; conditions: CTLs from HLA-A*0201 positive donor after 3rd peptide stimulation, day 21; peptide-pulsed T2 vs control wells
Description: Monocyte-derived dendritic cells (DCs) were used as antigen-presenting cells to induce cytotoxic T lymphocyte (CTL) that responses against peptides presented on human leukocyte antigen (HLA). DCs were generated in vitro as described elsewhere (Nakahara S et al., Cancer Res 2003 Jul. 15, 63(14): 4112-8). Specifically, peripheral blood mononuclear cells isolated from a normal volunteer (HLA-A*0201 positive) by Ficoll-Paque plus (Pharmacia) solution were separated by adherence to a plastic tissue culture dish (Becton Dickinson) so as to enrich them as the monocyte fraction. The monocyte-enriched population was cultured in the presence of 1000 U/ml of granulocyte-macrophage colony-stimulating factor (R&D System) and 1000 U/ml of interleukin (IL)-4 (R&D System) in AIM-V Medium (Invitrogen) containing 2% heat-inactivated autologous serum (AS). After 7 days of culture, the cytokine-induced DCs were pulsed with 20 microgram/ml of each of the synthesized peptides in the presence of 3 microgram/ml of beta 2-microglobulin for 3 hr at 37 degrees C. in AIM-V Medium. The generated cells appeared to express DC-associated molecules, such as CD80, CD83, CD86 and HLA class II, on their cell surfaces (data not shown). These peptide-pulsed DCs were then inactivated by X ray-irradiated (20 Gy) and mixed at a 1:20 ratio with autologous CD8^+ T cells, obtained by positive selection with CD8 Positive Isolation Kit (Dynal). These cultures were set up in 48-well plates (Corning); each well contained 1.5×10^4 peptide-pulsed DCs, 3×10^5 CD8^+ T cells and 10 ng/ml of IL-7 (R&D System) in 0.5 ml of AIM-V/2% AS medium. Three days later, these cultures were supplemented with IL-2 (CHIRON) to a final concentration of 20 IU/ml. On day 7 and 14, the T cells were further stimulated with the autologous peptide-pulsed DCs. The DCs were prepared each time by the same way described above. CTL was tested against peptide-pulsed T2 cells after the 3rd round of peptide stimulation on day 21 (Tanaka H et al., Br J Cancer 2001 Jan. 5, 84(1): 94-9; Umano Y et al., Br J Cancer 2001 Apr. 20, 84(8): 1052-7; Uchida N et al., Clin Cancer Res 2004 Dec. 15, 10(24): 8577-86; Suda T et al., Cancer Sci 2006 May, 97(5): 411-9; Watanabe T et al., Cancer Sci 2005 August, 96(8): 498-506).
as §1

[2] = system: T2 cells pulsed with corresponding peptide; experiment: IFN-gamma ELISA of CTL clones established by limiting dilution
Experimental: The dilutions were made to have 0.3, 1, and 3 CTLs/well in 96 round-bottomed micro titer plate (Nalge Nunc International). CTLs were cultured with 1×10^4 cells/well of 2 kinds of human B-lymphoblastoid cell lines, 30 ng/ml of anti-CD3 antibody, and 125 U/ml of IL-2 in a total of 150 microliter/well of AIM-V Medium containing 5% AS. 50 microliter/well of IL-2 were added to the medium 10 days later to reach a final concentration of 125 U/ml IL-2. CTL activity was tested on the 14th day, and CTL clones were expanded using the same method as described above (Uchida N et al., Clin Cancer Res 2004 Dec. 15, 10(24): 8577-86; Suda T et al., Cancer Sci 2006 May, 97(5): 411-9; Watanabe T et al., Cancer Sci 2005 August, 96(8): 498-506).
as §1

T2 cells = experiment: Cytotoxic activity of CTL clone, 51Cr-release, MPHOSPH1-negative control; conditions: express HLA-A*0201 but not MPHOSPH1
Experimental: (§2) The CTL clones were examined for their ability to kill the tumor cells endogenously expressing MPHOSPH1 and HLA-A*0201. Target cells (tumor cell lines) were labeled with 100 micro-Ci of Na2^51CrO4 (Perkin Elmer) for 1 hr in CO2 incubator. Peptide-pulsed target cells were prepared by incubating the cells with 20 microgram/ml of the peptide for 16 hrs before labeling. Target cells labeled with ^51Cr were rinsed and mixed with CTL clones in a final volume of 200 microliter in 96-well round-bottom microtiter plates. The plates were centrifuged (4 minutes at 800 rpm) to increase cell-to-cell contact and placed into CO2 incubator. After 4 hrs of incubation, 50 microliter of the supernatant was collected from each well and the radioactivity was determined with a gamma counter (PerkinElmer). The percentage of specific cytotoxicity was determined by calculating the percentage of specific ^51Cr-release by the following formula: {(cpm of the test sample release−cpm of the spontaneous release)/(cpm of the maximum release−cpm of the spontaneous release)}×100. Spontaneous release was determined by incubating the target cells alone, in the absence of effector cells. The maximum release was obtained by incubating the targets with 1N HCl. All measurements were done in duplicate.

MKN45 cells = experiment: Cytotoxic activity of CTL clone, 51Cr-release, HLA-A*0201-negative control; conditions: express MPHOSPH1 but not HLA-A*0201
Experimental: as §2

UMUC-3 cells = experiment: Cytotoxic activity of CTL clone, 51Cr-release; conditions: express both MPHOSPH1 and HLA-A*0201
Experimental: as §2

| Substance | IFN-gamma production of CTL lines by IFN-gamma ELISA [1] | Peptide specific CTL activity (IFN-gamma production) by IFN-gamma ELISPOT (peptide-pulsed T2 cells) | IFN-gamma production from CTL clones by IFN-gamma ELISA [2] | Cytotoxic activity of CTL clone (T2 cells) | Cytotoxic activity of CTL clone (MKN45 cells) | Cytotoxic activity of CTL clone (UMUC-3 cells) |
| --- | --- | --- | --- | --- | --- | --- |
| FLLTIENEL (a peptide derived from MPHOSPH1) [SEQ ID NO: 5] | potent IFN-gamma production against T2 cells pulsed with the corresponding peptide | potent IFN-gamma production as compared to the control wells | Potent IFN-gamma production was observed | – | – | – |
| FQGCIMQPV (a peptide derived from MPHOSPH1) [SEQ ID NO: 14] | potent IFN-gamma production against T2 cells pulsed with the corresponding peptide | potent IFN-gamma production as compared to the control wells | – | – | – | – |
| GLRAFLLTI (a peptide derived from MPHOSPH1) [SEQ ID NO: 64] | potent IFN-gamma production against T2 cells pulsed with the corresponding peptide | potent IFN-gamma production as compared to the control wells | Potent IFN-gamma production was observed | – | – | – |
| KLICnETVEV (KLICNETVEV; not fully specified (residue 5); printed as KLICnETVEV) [SEQ ID NO: 77] | potent IFN-gamma production against T2 cells pulsed with the corresponding peptide | potent IFN-gamma production as compared to the control wells | Potent IFN-gamma production was observed | – | – | – |
| KLLDLIEDL (a peptide derived from MPHOSPH1) [SEQ ID NO: 1] | – | no specific IFN-gamma production was observed | – | – | – | – |
| KLSNeIETAT (KLSNEIETAT; not fully specified (residue 5); printed as KLSNeIETAT) [SEQ ID NO: 97] | potent IFN-gamma production against T2 cells pulsed with the corresponding peptide | potent IFN-gamma production as compared to the control wells | – | – | – | – |
| LLTLgKCINV (LLTLGKCINV; not fully specified (residue 5); printed as LLTLgKCINV) [SEQ ID NO: 79] | potent IFN-gamma production against T2 cells pulsed with the corresponding peptide | potent IFN-gamma production as compared to the control wells | – | – | – | – |
| QLVAaLEIQL (QLVAALEIQL; not fully specified (residue 5); printed as QLVAaLEIQL) [SEQ ID NO: 103] | potent IFN-gamma production against T2 cells pulsed with the corresponding peptide | potent IFN-gamma production as compared to the control wells | – | – | – | – |
| YIYDLFVPVS [SEQ ID NO: 120, YIYDLFVPVS] | – | – | – | no significant cytotoxic activity was detected | no significant cytotoxic activity was detected | potent cytotoxic activity |
| YLAYdETLNV (YLAYDETLNV; not fully specified (residue 5); printed as YLAYdETLNV) [SEQ ID NO: 73] | potent IFN-gamma production against T2 cells pulsed with the corresponding peptide | potent IFN-gamma production as compared to the control wells | Potent IFN-gamma production was observed | – | – | – |
